Here are results for 31 compounds from patent US11802111B2, “Cyclobutyl amide monoacylglycerol lipase modulators” (Janssen Pharmaceutica NV, priority 2020, dated 2023).

Chain of human MGL from HeLa cells (Q99685 whole entry): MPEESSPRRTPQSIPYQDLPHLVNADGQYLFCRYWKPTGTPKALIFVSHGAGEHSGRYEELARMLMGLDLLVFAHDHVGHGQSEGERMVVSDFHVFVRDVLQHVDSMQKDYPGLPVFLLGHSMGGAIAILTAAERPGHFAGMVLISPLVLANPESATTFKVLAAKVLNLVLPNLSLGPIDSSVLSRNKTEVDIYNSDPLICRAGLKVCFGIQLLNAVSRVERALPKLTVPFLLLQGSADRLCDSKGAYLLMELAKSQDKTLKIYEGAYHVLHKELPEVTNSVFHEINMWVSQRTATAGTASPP

The target of the experiment is human MGL from HeLa cells (Homo sapiens (Human), UniProt Q99685). Put plainly: MGL in vitro activity assay ([glycerol-1,3-3H]-oleoyl glycerol hydrolysis, activated carbon filtration). The format is biochemical. To be noted: 300 nM [Glycerol-1,3-3H]-oleoyl glycerol, one hour. In outline:
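Activity measured as tritium in the flow-through after activated carbon filtration of a 1 h reaction containing 300 nM 3H-oleoyl glycerol, compound and HeLa-derived human MGL. Compounds screened at 10 μM; IC50 series start at an empirically chosen highest concentration.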
For orientation: IC50 means the concentration at which inhibition is half-maximal. A high value points to a need for much substance. Regarding `CCc1cccc(C2CCC3(C2)CN(C(=O)[C@H]2C[C@@](C)(O)C2)C3)c1` (mixture of isomers) [Example 91, (rac)-(6-(3-Ethylphenyl)-2-azaspiro[3.4]octan-2-yl)((1s,3s)-3-hydroxy-3-methylcyclobutyl)methanone], it took 58 nM to reach half-maximal inhibition (IC50). Regarding `Cc1cc(F)cc(C2CCC3(CC2)CN(C(=O)[C@H]2C[C@@](C)(O)C2)C3)c1` [Example 352, (7-(3-Fluoro-5-methylphenyl)-2-azaspiro[3.5]nonan-2-yl)((1s,3s)-3-hydroxy-3-methylcyclobutyl)methanone], half-maximal inhibition (IC50) was put at 22 nM.

The compound `COc1cccc(CC2CC3(C2)CN(C(=O)[C@H]2C[C@@](C)(O)C2)C3)c1` [Example 197, ((1s,3s)-3-Hydroxy-3-methylcyclobutyl)(6-(3-methoxybenzyl)-2-azaspiro[3.3]heptan-2-yl)methanone] returned an IC50 of 64 nM. Consider `CC(C)Oc1nc(CC2CC3(C2)CN(C(=O)[C@H]2C[C@@](C)(O)C2)C3)ccc1C(F)(F)F` [Example 282, ((1s,3s)-3-Hydroxy-3-methylcyclobutyl)(6-((6-isopropoxy-5-(trifluoromethyl)pyridin-2-yl)methyl)-2-azaspiro[3.3]heptan-2-yl)methanone], for which the IC50 was 1 nM. Consider `Cc1nc(OC2CCC3(CC2)CN(C(=O)[C@H]2C[C@@](C)(O)C2)C3)ccc1C(F)(F)F` [Example 448, ((1s,3s)-3-Hydroxy-3-methylcyclobutyl)(7-((6-methyl-5-(trifluoromethyl)pyridin-2-yl)oxy)-2-azaspiro[3.5]nonan-2-yl)methanone], for which the IC50 came to 2.4 nM. In the case of `C[C@]1(O)C[C@@H](C(=O)N2CC3(CCC(c4cc5ccccn5n4)C3)C2)C1` (mixture of isomers) [Example 325, (rac)-((1s,3s)-3-Hydroxy-3-methylcyclobutyl)(6-(pyrazolo[1,5-c]pyridin-2-yl)-2-azaspiro[3.4]octan-2-yl)methanone], the IC50 stood at 348 nM. As for `CC(C)c1cccc(OC2CCC3(CC2)CN(C(=O)[C@H]2C[C@@](C)(O)C2)C3)c1` [Example 241, ((1s,3s)-3-Hydroxy-3-methylcyclobutyl)(7-(3-isopropylphenoxy)-2-azaspiro[3.5]nonan-2-yl)methanone], half-maximal inhibition (IC50) was put at 27 nM.

Compound `COc1ccc(C2CCC3(CC2)CN(C(=O)[C@H]2C[C@@](C)(O)C2)C3)cc1C` [Example 105, ((1s,3s)-3-Hydroxy-3-methylcyclobutyl)(7-(4-methoxy-3-methylphenyl)-2-azaspiro[3.5]nonan-2-yl)methanone] came in with an IC50 of 68 nM. Compound `COc1cc(C)cc(C2CC3(CCN(C(=O)[C@H]4C[C@@](C)(O)C4)CC3)C2)c1` [Example 478, ((1s,3s)-3-Hydroxy-3-methylcyclobutyl)(2-(3-methoxy-5-methylphenyl)-7-azaspiro[3.5]nonan-7-yl)methanone] had an IC50 of 203 nM.

With `C[C@]1(O)C[C@@H](C(=O)N2CC3(CC(Cc4ccccc4)C3)C2)C1` [Example 164, (6-Benzyl-2-azaspiro[3.3]heptan-2-yl)((1s,3s)-3-hydroxy-3-methylcyclobutyl)methanone], the 50% inhibitory concentration (IC50) stood at 52 nM. The compound `Cc1cccc(OC2CCC3(CC2)CN(C(=O)[C@H]2C[C@@](C)(O)C2)C3)c1C` [Example 406, (7-(2,3-Dimethylphenoxy)-2-azaspiro[3.5]nonan-2-yl)((1s,3s)-3-hydroxy-3-methylcyclobutyl)methanone] returned an IC50 of 20 nM. Next, `COc1cc(OC2CCC3(CC2)CN(C(=O)[C@H]2C[C@@](C)(O)C2)C3)ccc1Cl` [Example 414, (7-(4-Chloro-3-methoxyphenoxy)-2-azaspiro[3.5]nonan-2-yl)((1s,3s)-3-hydroxy-3-methylcyclobutyl)methanone]: 15 nM. `Cc1cc(C2CCC3(C2)CN(C(=O)[C@H]2C[C@@](C)(O)C2)C3)ccc1C(F)(F)F` (mixture of isomers) [Example 67, (rac)-((1s,3s)-3-Hydroxy-3-methylcyclobutyl)(6-(3-methyl-4-(trifluoromethyl)phenyl)-2-azaspiro[3.4]octan-2-yl)methanone]: the concentration for half-maximal inhibition (IC50) was 1.7 nM. Take `Cc1ccc(OC2CCC3(CC2)CN(C(=O)[C@H]2C[C@@](C)(O)C2)C3)cc1C(F)(F)F` [Example 259, ((1s,3s)-3-Hydroxy-3-methylcyclobutyl)(7-(4-methyl-3-(trifluoromethyl)phenoxy)-2-azaspiro[3.5]nonan-2-yl)methanone]: the IC50 worked out at 3 nM. The compound `Cc1cc(F)ccc1C1CCC2(CC1)CN(C(=O)[C@H]1C[C@@](C)(O)C1)C2` [Example 357, (7-(4-Fluoro-2-methylphenyl)-2-azaspiro[3.5]nonan-2-yl)((1s,3s)-3-hydroxy-3-methylcyclobutyl)methanone] displayed an IC50 of 29 nM. `COc1cc(C2CCC3(CC2)CN(C(=O)[C@H]2C[C@@](C)(O)C2)C3)cc(C(F)(F)F)c1` [Example 119, ((1s,3s)-3-Hydroxy-3-methylcyclobutyl)(7-(3-methoxy-5-(trifluoromethyl)phenyl)-2-azaspiro[3.5]nonan-2-yl)methanone] gave an IC50 of 12 nM. As to `CC(C)c1cccc(C2CCC3(C2)CN(C(=O)[C@H]2C[C@](O)(C(F)F)C2)C3)c1` (mixture of isomers) [Example 319, (rac)-((1s,3s)-3-(Difluoromethyl)-3-hydroxycyclobutyl)(6-(3-isopropylphenyl)-2-azaspiro[3.4]octan-2-yl)methanone], the IC50 is 38 nM. In the case of `Cn1nc(C(F)(F)F)cc1C1CCC2(C1)CN(C(=O)[C@H]1C[C@@](C)(O)C1)C2` (mixture of isomers) [Example 101, (rac)-((1s,3s)-3-Hydroxy-3-methylcyclobutyl)(6-(1-methyl-3-(trifluoromethyl)-1H-pyrazol-5-yl)-2-azaspiro[3.4]octan-2-yl)methanone], the midpoint of inhibition, the IC50, lay at 753 nM.

The compound `Cc1cccc(CC2CCC3(CC2)CN(C(=O)[C@H]2C[C@@](C)(O)C2)C3)c1F` [Example 398, (7-(2-Fluoro-3-methylbenzyl)-2-azaspiro[3.5]nonan-2-yl)((1s,3s)-3-hydroxy-3-methylcyclobutyl)methanone] had an IC50 of 18 nM. The same measure for `COc1cccc(OC2CCC3(CC2)CN(C(=O)[C@H]2C[C@@](C)(O)C2)C3)c1C` [Example 409, ((1s,3s)-3-Hydroxy-3-methylcyclobutyl)(7-(3-methoxy-2-methylphenoxy)-2-azaspiro[3.5]nonan-2-yl)methanone]: 42 nM; for `C[C@]1(O)C[C@@H](C(=O)N2CC3(CCC(Oc4ccc(C(F)F)cn4)CC3)C2)C1` [Example 423, (7-((5-(Difluoromethyl)pyridin-2-yl)oxy)-2-azaspiro[3.5]nonan-2-yl)((1s,3s)-3-hydroxy-3-methylcyclobutyl)methanone]: 188 nM; for `Cc1cc([C@H]2CCC3(C2)CN(C(=O)[C@H]2C[C@@](C)(O)C2)C3)ccc1Cl` [Example 70, ((S)-6-(4-Chloro-3-methylphenyl)-2-azaspiro[3.4]octan-2-yl)((1s,3R)-3-hydroxy-3-methylcyclobutyl)methanone]: 17 nM.

For `COc1cccc(CC2CC3(C2)CN(C(=O)[C@H]2C[C@@](C)(O)C2)C3)n1` [Example 191, ((1s,3s)-3-Hydroxy-3-methylcyclobutyl)(6-((6-methoxypyridin-2-yl)methyl)-2-azaspiro[3.3]heptan-2-yl)methanone], inhibition was half-maximal at 159 nM (IC50). Turning to `Cn1ccc2ccc(C3CC4(C3)CN(C(=O)[C@H]3C[C@@](C)(O)C3)C4)nc21` [Example 269, ((1s,3s)-3-Hydroxy-3-methylcyclobutyl)(6-(1-methyl-1H-pyrrolo[2,3-b]pyridin-6-yl)-2-azaspiro[3.3]heptan-2-yl)methanone], the IC50 was 507 nM.

Take `COc1c(C)cccc1C1CCC2(C1)CN(C(=O)[C@H]1C[C@@](C)(O)C1)C2` (mixture of isomers) [Example 95, (rac)-((1s,3s)-3-Hydroxy-3-methylcyclobutyl)(6-(2-methoxy-3-methylphenyl)-2-azaspiro[3.4]octan-2-yl)methanone]: the IC50 was 290 nM. `C[C@]1(O)C[C@@H](C(=O)N2CC3(CC(Cc4ccc5ccn(CC(F)(F)F)c5n4)C3)C2)C1` [Example 297, ((1s,3s)-3-Hydroxy-3-methylcyclobutyl)(6-((1-(2,2,2-trifluoroethyl)-1H-pyrrolo[2,3-b]pyridin-6-yl)methyl)-2-azaspiro[3.3]heptan-2-yl)methanone] showed an IC50 of 21 nM.

For the compound `C[C@]1(O)C[C@@H](C(=O)N2CC3(CC(Cc4ccc5ccccc5n4)C3)C2)C1` [Example 198, ((1s,3s)-3-Hydroxy-3-methylcyclobutyl)(6-(quinolin-2-ylmethyl)-2-azaspiro[3.3]heptan-2-yl)methanone], the IC50 stood at 56 nM. For `C[C@]1(O)C[C@@H](C(=O)N2CC3(CC(Cc4ccc(OC(F)F)cc4)C3)C2)C1` [Example 221, (6-(4-(Difluoromethoxy)benzyl)-2-azaspiro[3.3]heptan-2-yl)((1s,3s)-3-hydroxy-3-methylcyclobutyl)methanone], the 50% inhibitory concentration (IC50) worked out at 5.1 nM. In turn, `CCn1cc(F)c2ccc(OC3CCC4(CC3)CN(C(=O)[C@H]3C[C@@](C)(O)C3)C4)nc21` [Example 475, (7-((1-Ethyl-3-fluoro-1H-pyrrolo[2,3-b]pyridin-6-yl)oxy)-2-azaspiro[3.5]nonan-2-yl)((1s,3s)-3-hydroxy-3-methylcyclobutyl)methanone] displayed an IC50 of 4.6 nM.

`Cc1cc(F)ccc1CC1CC2(C1)CN(C(=O)[C@H]1C[C@@](C)(O)C1)C2` [Example 273, (6-(4-Fluoro-2-methylbenzyl)-2-azaspiro[3.3]heptan-2-yl)((1s,3s)-3-hydroxy-3-methylcyclobutyl)methanone]: the half-inhibitory concentration (IC50) amounted to 9.9 nM. Compound `Cc1ccc(C2CC3(C2)CN(C(=O)[C@H]2C[C@@](C)(O)C2)C3)cc1OC(F)(F)F` [Example 23, ((1s,3s)-3-Hydroxy-3-methylcyclobutyl)(6-(4-methyl-3-(trifluoromethoxy)phenyl)-2-azaspiro[3.3]heptan-2-yl)methanone] gave a concentration for half-maximal inhibition (IC50) of 45 nM.
